Measured values reported in patent US12545639B2, “3-substituted phenylamidine compounds, preparation and use thereof” (PI INDUSTRIES LTD., priority 2019, dated 2026).

Legend:
[1] = test system: Botrytis cinerea; experiment: Botrytis cinerea (gray mold) in vitro test, radial growth on potato dextrose agar; type: cell-based; settings: 168 h, 300 ppm in potato dextrose agar, 22° C., 90% relative humidity, seven days, read-out: control compared to the untreated check (radial growth)
[2] = test system: Alternaria solani; experiment: Alternaria solani (early blight of tomato/potato) in vitro test, radial growth on potato dextrose agar; type: cell-based; settings: 168 h, 300 ppm in potato dextrose agar, 25° C., 60% relative humidity, seven days, read-out: control compared to the untreated check (radial growth)
[3] = test system: Rhizoctonia solani; experiment: Rhizoctonia solani (rice sheath blight/potato black scurf) in vitro test, radial growth on potato dextrose agar; type: cell-based; settings: 168 h, 300 ppm in potato dextrose agar, 25° C., 60% relative humidity, seven days, read-out: control compared to the untreated check (radial growth)
[4] = test system: Phakopsora pachyrhizi; experiment: Phakopsora pachyrhizi test in soybean, preventive, in vivo on plants; settings: in Glycine max, read-out: Efficacy (% control), disease severity compared to the untreated check
[5] = test system: Pyricularia oryzae; experiment: microbe, parasite or virus in culture; type: cell-based; settings: 168 h, read-out: control compared to the untreated check (radial growth)
[6] = test system: Pyricularia oryzae; experiment: whole plant or invertebrate; type: in vivo, Pyricularia oryzae on rice; settings: read-out: Efficacy (% control), disease severity compared to the untreated check
[7] = test system: Colletotrichum capsici; experiment: Colletotrichum capsici (anthracnose) in vitro test, radial growth on potato dextrose agar; type: cell-based; settings: Colletotrichum truncatum, 168 h; 300 ppm in potato dextrose agar; 25° C., 60% relative humidity, seven days; read-out: control compared to the untreated check (radial growth)
[8] = test system: Septoria lycopersici/Corynespora cassicola (CORYCA); experiment: Septoria lycopersici/Corynespora cassicola (CORYCA) (leaf spot of tomato) in vitro test, radial growth on potato dextrose agar; type: cell-based; settings: 168 h, 300 ppm in potato dextrose agar, 25° C., 70% relative humidity, seven days, read-out: control compared to the untreated check (radial growth)
[9] = test system: Fusarium culmorum; experiment: Fusarium culmorum (foot rot of cereals) in vitro test, radial growth on potato dextrose agar; type: cell-based; settings: 168 h, 300 ppm in potato dextrose agar, 25° C., 60% relative humidity, seven days, read-out: control compared to the untreated check (radial growth)
Procedure, shortened: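 Compound in 0.3% DMSO mixed into potato dextrose agar, plates seeded with a 5 mm mycelial disc from an actively growing virulent culture. After seven days at 25° C and 60% relative humidity, radial growth was measured against untreated control.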

CCN(C)C=Nc1cc(Cl)cc(Cc2cccc(C)c2)c1C [Compound 94, N′-(5-chloro-2-methyl-3-(3-methylbenzyl)phenyl)-N-ethyl-N-methylformimidamide]
≥ 70%: inhibition of growth at 300 ppm [1] | inhibition of growth at 300 ppm [2] | inhibition of growth at 300 ppm [3] | pest or weed control at 500 ppm [4] | inhibition of growth at 300 ppm [5] | pest or weed control at 500 ppm [6] | inhibition of growth at 300 ppm [7] | inhibition of growth at 300 ppm [8]

CCN(C)C=Nc1cc(Cl)cc(N(C)c2cccc(Cl)c2)c1C [Compound 180, N′-(5-chloro-3-((3-chlorophenyl)(methyl)amino)-2-methylphenyl)-N-ethyl-N-methylformimidamide]
≥ 70%: inhibition of growth at 300 ppm [2] | pest or weed control at 500 ppm [6]

CCN(C)C=Nc1cc(C)cc(Cc2cc(C)cc(C)c2)c1Cl [Compound 55, N′-(2-chloro-3-(3,5-dimethylbenzyl)-5-methylphenyl)-N-ethyl-N-methylformimidamide]
≥ 70%: inhibition of growth at 300 ppm [1] | inhibition of growth at 300 ppm [2] | inhibition of growth at 300 ppm [3] | pest or weed control at 500 ppm [4] | inhibition of growth at 300 ppm [5] | pest or weed control at 500 ppm [6] | inhibition of growth at 300 ppm [9] | inhibition of growth at 300 ppm [8]

CCN(C)C=Nc1cc(Cl)cc(N(C)c2ccccc2F)c1C [Compound 178, N′-(5-chloro-3-((2-fluorophenyl)(methyl)amino)-2-methylphenyl)-N-ethyl-N-methylformimidamide]
≥ 70%: inhibition of growth at 300 ppm [1] | inhibition of growth at 300 ppm [2] | inhibition of growth at 300 ppm [3] | pest or weed control at 500 ppm [4] | inhibition of growth at 300 ppm [5] | pest or weed control at 500 ppm [6]

CCN(C)C=Nc1cc(C)cc(Cc2ccc(OC(F)(F)F)cc2)c1Cl [Compound 52, N′-(2-chloro-5-methyl-3-(4-(trifluoromethoxy)benzyl)phenyl)-N-ethyl-N-methylformimidamide]
≥ 70%: inhibition of growth at 300 ppm [1] | inhibition of growth at 300 ppm [2] | inhibition of growth at 300 ppm [3] | pest or weed control at 500 ppm [4] | inhibition of growth at 300 ppm [5] | pest or weed control at 500 ppm [6] | inhibition of growth at 300 ppm [9] | inhibition of growth at 300 ppm [8]

CCN(C)C=Nc1cc(C)cc(Cc2ccc(F)c(Cl)c2)c1Cl [Compound 54, N′-(2-chloro-3-(3-chloro-4-fluorobenzyl)-5-methylphenyl)-N-ethyl-N-methylformimidamide]
≥ 70%: inhibition of growth at 300 ppm [1] | inhibition of growth at 300 ppm [2] | inhibition of growth at 300 ppm [3] | pest or weed control at 500 ppm [4] | inhibition of growth at 300 ppm [5] | pest or weed control at 500 ppm [6] | inhibition of growth at 300 ppm [9] | inhibition of growth at 300 ppm [8]

CCN(C)C=Nc1cc(OC)cc(Cc2cccc(F)c2)c1C [Compound 277, N-ethyl-N′-(3-(3-fluorobenzyl)-5-methoxy-2-methylphenyl)-N-methylformimidamide]
≥ 70%: pest or weed control at 500 ppm [4] | pest or weed control at 500 ppm [6]

CCN(C)C=Nc1cc(C)cc(Cc2ccc(C(F)(F)F)cc2)c1Cl [Compound 51, N′-(2-chloro-5-methyl-3-(4-(trifluoromethyl)benzyl)phenyl)-N-ethyl-N-methylformimidamide]
≥ 70%: inhibition of growth at 300 ppm [1] | inhibition of growth at 300 ppm [2] | inhibition of growth at 300 ppm [3] | pest or weed control at 500 ppm [4] | inhibition of growth at 300 ppm [5] | pest or weed control at 500 ppm [6] | inhibition of growth at 300 ppm [9] | inhibition of growth at 300 ppm [7] | inhibition of growth at 300 ppm [8]

CCN(C)C=Nc1cc(C)cc(Cc2ccccc2OC(F)(F)F)c1Cl [Compound 50, N′-(2-chloro-5-methyl-3-(2-(trifluoromethoxy)benzyl)phenyl)-N-ethyl-N-methylformimidamide]
≥ 70%: inhibition of growth at 300 ppm [1] | inhibition of growth at 300 ppm [2] | inhibition of growth at 300 ppm [3] | pest or weed control at 500 ppm [4] | inhibition of growth at 300 ppm [5] | pest or weed control at 500 ppm [6] | inhibition of growth at 300 ppm [7] | inhibition of growth at 300 ppm [8]

CCN(C)C=Nc1cc(C)cc(Nc2ccc(Cl)cc2)c1Cl [Compound 59, N′-(2-chloro-3-((4-chlorophenyl)amino)-5-methylphenyl)-N-ethyl-N-methylformimidamide]
≥ 70%: inhibition of growth at 300 ppm [1] | inhibition of growth at 300 ppm [2] | inhibition of growth at 300 ppm [3] | pest or weed control at 500 ppm [4] | inhibition of growth at 300 ppm [5] | inhibition of growth at 300 ppm [9] | inhibition of growth at 300 ppm [7] | inhibition of growth at 300 ppm [8]

CCN(C)C=Nc1cc(C)cc(Cc2cccc(Cl)c2F)c1Cl [Compound 56, N′-(2-chloro-3-(3-chloro-2-fluorobenzyl)-5-methylphenyl)-N-ethyl-N-methylformimidamide]
≥ 70%: inhibition of growth at 300 ppm [1] | inhibition of growth at 300 ppm [2] | inhibition of growth at 300 ppm [3] | pest or weed control at 500 ppm [4] | inhibition of growth at 300 ppm [5] | inhibition of growth at 300 ppm [9] | inhibition of growth at 300 ppm [7] | inhibition of growth at 300 ppm [8]

CCN(C)C=Nc1cc(Cl)cc(Cc2ccc(F)c(F)c2)c1C [Compound 129, N′-(5-chloro-3-(3,4-difluorobenzyl)-2-methylphenyl)-N-ethyl-N-methylformimidamide]
≥ 70%: inhibition of growth at 300 ppm [1] | inhibition of growth at 300 ppm [2] | inhibition of growth at 300 ppm [3] | pest or weed control at 500 ppm [4] | inhibition of growth at 300 ppm [5] | inhibition of growth at 300 ppm [9] | inhibition of growth at 300 ppm [7] | inhibition of growth at 300 ppm [8]

CCN(C)C=Nc1cc(F)cc(Cc2ccc(Br)cc2F)c1C [Compound 236, N′-(3-(4-bromo-2-fluorobenzyl)-5-fluoro-2-methylphenyl)-N-ethyl-N-methylformimidamide]
≥ 70%: inhibition of growth at 300 ppm [1] | inhibition of growth at 300 ppm [2] | inhibition of growth at 300 ppm [3] | pest or weed control at 500 ppm [4] | inhibition of growth at 300 ppm [5] | inhibition of growth at 300 ppm [9] | inhibition of growth at 300 ppm [7] | inhibition of growth at 300 ppm [8]

CCN(C)C=Nc1cc(C)cc(Cc2ccccc2Br)c1C [Compound 221, N′-(3-(2-bromobenzyl)-2,5-dimethylphenyl)-N-ethyl-N-methylformimidamide]
≥ 70%: inhibition of growth at 300 ppm [1] | inhibition of growth at 300 ppm [2] | inhibition of growth at 300 ppm [3] | pest or weed control at 500 ppm [4] | inhibition of growth at 300 ppm [5] | inhibition of growth at 300 ppm [9] | inhibition of growth at 300 ppm [7] | inhibition of growth at 300 ppm [8]

CCN(C)C=Nc1cc(Cl)cc(Cc2ccc(Br)cc2)c1C [Compound 125, N′-(3-(4-bromobenzyl)-5-chloro-2-methylphenyl)-N-ethyl-N-methylformimidamide]
≥ 70%: inhibition of growth at 300 ppm [1] | inhibition of growth at 300 ppm [2] | inhibition of growth at 300 ppm [3] | pest or weed control at 500 ppm [4] | inhibition of growth at 300 ppm [5] | inhibition of growth at 300 ppm [9] | inhibition of growth at 300 ppm [7] | inhibition of growth at 300 ppm [8]

CCN(C)C=Nc1cc(C)cc(Cc2ccc(Br)cc2)c1C [Compound 223, N′-(3-(4-bromobenzyl)-2,5-dimethylphenyl)-N-ethyl-N-methylformimidamide]
≥ 70%: inhibition of growth at 300 ppm [1] | inhibition of growth at 300 ppm [2] | inhibition of growth at 300 ppm [3] | pest or weed control at 500 ppm [4] | inhibition of growth at 300 ppm [5] | inhibition of growth at 300 ppm [9] | inhibition of growth at 300 ppm [7] | inhibition of growth at 300 ppm [8]

CCN(C)C=Nc1cc(C)cc(NCc2ccccc2C(F)(F)F)c1Cl [Compound 181, N′-(2-chloro-5-methyl-3-((2-(trifluoromethyl)benzyl)amino)phenyl)-N-ethyl-N-methylformimidamide]
≥ 70%: inhibition of growth at 300 ppm [1] | inhibition of growth at 300 ppm [2] | inhibition of growth at 300 ppm [3] | pest or weed control at 500 ppm [4] | inhibition of growth at 300 ppm [5] | pest or weed control at 500 ppm [6] | inhibition of growth at 300 ppm [7]

CCN(C)C=Nc1cc(C)cc(Cc2ccc(C)cc2)c1Cl [Compound 18, N′-(2-chloro-5-methyl-3-(4-methylbenzyl)phenyl)-N-ethyl-N-methylformimidamide]
≥ 70%: inhibition of growth at 300 ppm [1] | inhibition of growth at 300 ppm [2] | inhibition of growth at 300 ppm [3] | pest or weed control at 500 ppm [4] | inhibition of growth at 300 ppm [5] | inhibition of growth at 300 ppm [9] | inhibition of growth at 300 ppm [7] | inhibition of growth at 300 ppm [8]
